Experimental findings from patent US20240109900A1, “AZABICYCLIC SHP2 INHIBITORS” (IRBM S.P.A., priority 2021, published 2024) are described below.

The subject of assay [1] is ERK phosphorylation in KYSE-520 cells. In words: Phospho-ERK cellular assay. The class given is cell-based. The note with it: KYSE-520 cells, 2 h at 37° C., phospho-ERK1/2 (Thr202/Tyr204) TR-FRET, read-out: PERK IC50. The method, boiled down: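 TR-FRET read-out of ERK1/2 Thr202/Tyr204 phosphorylation was taken after overnight antibody incubation at room temperature. Before that, KYSE-520 cells were treated 2 h at 37 °C with compound dilutions and lysed 30 min. Percent inhibition relative to vehicle and cell-free wells was fitted four-parametrically to give IC50.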

Assay [2] has as its target SHP-2 enzyme (Met1-Leu525) (Homo sapiens (Human), UniProt Q06124). In words: SHP2 inhibition enzymatic assay. The class given is biochemical. The settings on record: 0.5 nM SHP-2 activated by 500 nM IRS1 peptide, 75 μM DiFMUP substrate; read-out: SHP2wt-IC50. The method, boiled down:
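Compounds were preincubated 30 min with 0.5 nM SHP-2 (Met1-Leu525) plus 500 nM IRS1 activating peptide (pH 7.2 HEPES, 5 mM DTT), then 75 μM DiFMUP substrate reacted 30 min at room temperature. After bpV quench, DiFMUP fluorescence gave % inhibition; four-parameter logistic fit yielded IC50.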

Like-named read-outs stand apart in the source and are kept apart here.

SHP-2 enzyme (Met1-Leu525), sequence (Q06124 1-525): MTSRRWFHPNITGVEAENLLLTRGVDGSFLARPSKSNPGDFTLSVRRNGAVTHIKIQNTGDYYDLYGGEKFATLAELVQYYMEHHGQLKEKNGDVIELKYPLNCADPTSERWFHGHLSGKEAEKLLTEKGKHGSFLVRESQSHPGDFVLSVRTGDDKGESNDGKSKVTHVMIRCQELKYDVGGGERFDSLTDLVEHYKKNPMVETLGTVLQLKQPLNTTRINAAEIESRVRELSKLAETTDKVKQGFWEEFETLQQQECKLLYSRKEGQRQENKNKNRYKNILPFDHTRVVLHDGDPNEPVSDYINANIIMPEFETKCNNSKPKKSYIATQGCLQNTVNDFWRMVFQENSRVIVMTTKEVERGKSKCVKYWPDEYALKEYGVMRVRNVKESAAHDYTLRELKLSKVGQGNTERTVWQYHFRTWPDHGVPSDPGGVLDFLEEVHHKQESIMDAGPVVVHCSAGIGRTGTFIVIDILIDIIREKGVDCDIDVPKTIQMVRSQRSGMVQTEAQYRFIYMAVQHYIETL

Broadly, the IC50 is the concentration needed to halve the response being measured. `Cn1cc2c(Cl)c(-c3n[nH]c4nc(N5C[C@@H]6[C@H](C5)[C@@]6(CN)c5cccc(Cl)n5)cnc34)ccc2n1` [Example 494, ((1R,5S,6r)-3-(3-(4-chloro-2-methyl-2H-indazol-5-yl)-1H-pyrazolo[3,4-b]pyrazin-6-yl)-6-(6-chloropyridin-2-yl)-3-azabicyclo[3.1.0]hexan-6-yl)methanamine]: the 50% inhibitory concentration (IC50) in assay [1] (Homo sapiens, KYSE-520, 2 h) was below 1000 nM; in assay [2], below 500 nM.

Consider `Cc1csc([C@@]2(CN)[C@@H]3CN(c4cnc(Sc5ccnc(N)c5Cl)c(N)n4)C[C@@H]32)n1` [Example 434, 3-((2-amino-3-chloropyridin-4-yl)thio)-6-((1R,5S,6r)-6-(aminomethyl)-6-(4-methylthiazol-2-yl)-3-azabicyclo[3.1.0]hexan-3-yl)pyrazin-2-amine], for which the IC50 in assay [1] is below 1000 nM; in assay [2], below 500 nM.

On to `NC[C@]1(c2ccccc2F)[C@@H]2CCN(c3cnc4c(-c5cccc(-c6ncco6)c5Cl)n[nH]c4n3)C[C@@H]21` [Example 168, ((1S,6R,7R)-3-(3-(2-chloro-3-(oxazol-2-yl)phenyl)-1H-pyrazolo[3,4-b]pyrazin-6-yl)-7-(2-fluorophenyl)-3-azabicyclo[4.1.0]heptan-7-yl)methanamine], for which the IC50 is below 1000 nM in assay [1] (Homo sapiens, KYSE-520, 2 h) and below 500 nM in assay [2].

As for `NC[C@]1(c2cccc(F)c2F)[C@@H]2CCN(c3cnc(Sc4ccnc(N)c4Cl)c(N)n3)C[C@@H]21` [Example 429, 3-((2-amino-3-chloropyridin-4-yl)thio)-6-((1S,6R,7R)-7-(aminomethyl)-7-(2,3-difluorophenyl)-3-azabicyclo[4.1.0]heptan-3-yl)pyrazin-2-amine], the IC50 is below 1000 nM in assay [1] (Homo sapiens, KYSE-520, 2 h) and below 500 nM in assay [2].

Regarding `Cn1cc2c(Cl)c(-c3n[nH]c4nc(N5CC[C@@H]6[C@H](C5)[C@@]6(CN)c5cc(F)cc(F)c5)n(C)c(=O)c34)ccc2n1` [Example 344, 6-((1S,6R,7R)-7-(aminomethyl)-7-(3,5-difluorophenyl)-3-azabicyclo[4.1.0]heptan-3-yl)-3-(4-chloro-2-methyl-2H-indazol-5-yl)-5-methyl-1,5-dihydro-4H-pyrazolo[3,4-d]pyrimidin-4-one], the IC50 is below 1000 nM in assay [1] (Homo sapiens, KYSE-520, 2 h) and below 500 nM in assay [2].

Regarding `NC[C@]1(c2ccccc2F)[C@@H]2CCN(c3cnc4c(-c5ccc6nn(CC(N)=O)cc6c5Cl)n[nH]c4n3)C[C@@H]21` [Example 324, 2-(5-(6-((1S,6R,7R)-7-(aminomethyl)-7-(2-fluorophenyl)-3-azabicyclo[4.1.0]heptan-3-yl)-1H-pyrazolo[3,4-b]pyrazin-3-yl)-4-chloro-2H-indazol-2-yl)acetamide], the IC50 is below 1000 nM in assay [1] (Homo sapiens, KYSE-520, 2 h) and below 500 nM in assay [2].

Regarding `CC(C)n1ncc2c(Cl)c(-c3n[nH]c4nc(N5CC[C@@H]6[C@H](C5)[C@@]6(CN)c5ccccc5F)cnc34)ccc21` [Example 325, ((1S,6R,7R)-3-(3-(4-chloro-1-isopropyl-1H-indazol-5-yl)-1H-pyrazolo[3,4-b]pyrazin-6-yl)-7-(2-fluorophenyl)-3-azabicyclo[4.1.0]heptan-7-yl)methanamine], the IC50 in assay [1] (Homo sapiens, KYSE-520, 2 h) is below 1000 nM; in assay [2] it was below 500 nM.

With `NCC1(c2ccccc2F)C2CCN(c3cnc4c(-c5cccc6ncccc56)n[nH]c4n3)CC21` (stereo not drawn) [Example 5, (7-(2-fluorophenyl)-3-(3-(quinolin-5-yl)-1H-pyrazolo[3,4-b]pyrazin-6-yl)-3-azabicyclo[4.1.0]heptan-7-yl)methanamine], the IC50 in assay [1] (Homo sapiens, KYSE-520, 2 h) is below 1000 nM; in assay [2], below 500 nM.

Take `Cn1ccc2c(F)c(-c3n[nH]c4nc(N5CC[C@@H]6[C@H](C5)[C@@]6(CN)c5ccccc5F)cnc34)ccc2c1=O` [Example 316, 6-(6-((1S,6R,7R)-7-(aminomethyl)-7-(2-fluorophenyl)-3-azabicyclo[4.1.0]heptan-3-yl)-1H-pyrazolo[3,4-b]pyrazin-3-yl)-5-fluoro-2-methylisoquinolin-1(2H)-one]: the IC50 in assay [1] (Homo sapiens, KYSE-520, 2 h) was below 1000 nM; in assay [2], below 500 nM.
